Patent US7989394B2, “Substituted 1-(azolin-2-yl)-amino-2-aryl-1-hetaryl-ethane compounds” (BASF SE, priority 2006, dated 2011)

Legend:
[1] = system: Green Peach Aphid (Myzus persicae); test: Green peach aphid (Myzus persicae) mortality on dipped pepper plants; type: in vivo; details: 120 h, pepper leaves dipped, aphid mortality after 5 days, read-out: mortality in comparison with untreated controls
Experimental: II. Green Peach Aphid (Myzus persicae)
(§1) Pepper plants in the 2nd leaf-pair stage (variety ‘California Wonder’) are infested with approximately 40 laboratory-reared aphids by placing infested leaf sections on top of the test plants. The leaf sections are removed after 24 hours. The leaves of the intact plants are dipped into gradient solutions of the test compound. Aphid mortality on the treated plants, relative to mortality on check plants, is determined after 5 days.

[2] = system: Cotton Aphid (Aphis gossypii); test: Cotton aphid (Aphis gossypii) mortality on dipped cotton plants; type: in vivo; details: 120 h, cotton cotyledons dipped, aphid mortality after 5 days, read-out: mortality in comparison with untreated controls
Experimental: I. Cotton Aphid (Aphis gossypii)
as §1, with “Cotton” for “Pepper”, “cotyledon” for “2nd leaf-pair”, “‘Delta Pine’)” for “‘California Wonder’)”, “100” for “40”, “cotyledons” for “leaves”

SMILES | mortality at 300 ppm [1] | mortality at 300 ppm [2]
Cc1cc(C)cc(CC(NC2=NCCS2)c2cccs2)c1 (racemic) [Example 22, (4,5-Dihydro-thiazol-2-yl)-[2-(3,5-dimethyl-phenyl)-1-thien-2-yl-ethyl]-amine] | > 70% | > 70%
Cc1cc(C)cc(CC(NC2=NCCS2)c2ccco2)c1 (racemic) [Example 23, (4,5-Dihydro-thiazol-2-yl)-[2-(3,5-dimethyl-phenyl)-1-furan-2-yl-ethyl]-amine] | > 70% | > 70%
Cc1cc(C)cc(CC(NC(=S)NCCO)c2cccs2)c1 (racemic) [Example 6, 1-[2-(3,5-Dimethyl-phenyl)-1-thien-2-yl-ethyl]-3-(2-hydroxy-ethyl)-thiourea] | > 70% | > 70%
